Assay results: publication PMC5647113 (Circulation. Arrhythmia and electrophysiology, 2017)

Assays:
[1] = target: hERG (KV11.1) (Homo sapiens, UniProt Q12809); assay: automated patch clamp; format: cell-based
[2] = target: hSK3 (KCa2.3) (Homo sapiens, UniProt Q9UGI6); assay: automated whole-cell patch clamp; format: cell-based
hSK3 (KCa2.3), sequence (Q9UGI6 whole entry): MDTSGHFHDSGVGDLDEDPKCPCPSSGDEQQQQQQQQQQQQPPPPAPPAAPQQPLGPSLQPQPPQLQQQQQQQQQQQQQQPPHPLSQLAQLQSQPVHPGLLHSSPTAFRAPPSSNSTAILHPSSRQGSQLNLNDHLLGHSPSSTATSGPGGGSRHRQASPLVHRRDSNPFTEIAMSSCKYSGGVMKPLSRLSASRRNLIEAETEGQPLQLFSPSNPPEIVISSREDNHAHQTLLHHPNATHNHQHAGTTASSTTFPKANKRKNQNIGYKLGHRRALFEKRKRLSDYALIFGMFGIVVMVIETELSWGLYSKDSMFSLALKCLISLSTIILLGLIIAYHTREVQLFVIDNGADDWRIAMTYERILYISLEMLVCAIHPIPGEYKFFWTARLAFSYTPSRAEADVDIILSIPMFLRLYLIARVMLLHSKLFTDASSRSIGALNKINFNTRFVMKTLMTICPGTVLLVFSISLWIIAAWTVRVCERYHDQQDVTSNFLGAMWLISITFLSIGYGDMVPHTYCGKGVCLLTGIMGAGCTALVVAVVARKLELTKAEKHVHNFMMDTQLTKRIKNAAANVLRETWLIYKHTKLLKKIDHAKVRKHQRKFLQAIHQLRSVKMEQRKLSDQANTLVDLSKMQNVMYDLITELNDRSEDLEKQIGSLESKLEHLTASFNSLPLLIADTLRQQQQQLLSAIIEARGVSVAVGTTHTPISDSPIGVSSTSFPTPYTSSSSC

hERG (KV11.1), sequence (Q12809 whole entry): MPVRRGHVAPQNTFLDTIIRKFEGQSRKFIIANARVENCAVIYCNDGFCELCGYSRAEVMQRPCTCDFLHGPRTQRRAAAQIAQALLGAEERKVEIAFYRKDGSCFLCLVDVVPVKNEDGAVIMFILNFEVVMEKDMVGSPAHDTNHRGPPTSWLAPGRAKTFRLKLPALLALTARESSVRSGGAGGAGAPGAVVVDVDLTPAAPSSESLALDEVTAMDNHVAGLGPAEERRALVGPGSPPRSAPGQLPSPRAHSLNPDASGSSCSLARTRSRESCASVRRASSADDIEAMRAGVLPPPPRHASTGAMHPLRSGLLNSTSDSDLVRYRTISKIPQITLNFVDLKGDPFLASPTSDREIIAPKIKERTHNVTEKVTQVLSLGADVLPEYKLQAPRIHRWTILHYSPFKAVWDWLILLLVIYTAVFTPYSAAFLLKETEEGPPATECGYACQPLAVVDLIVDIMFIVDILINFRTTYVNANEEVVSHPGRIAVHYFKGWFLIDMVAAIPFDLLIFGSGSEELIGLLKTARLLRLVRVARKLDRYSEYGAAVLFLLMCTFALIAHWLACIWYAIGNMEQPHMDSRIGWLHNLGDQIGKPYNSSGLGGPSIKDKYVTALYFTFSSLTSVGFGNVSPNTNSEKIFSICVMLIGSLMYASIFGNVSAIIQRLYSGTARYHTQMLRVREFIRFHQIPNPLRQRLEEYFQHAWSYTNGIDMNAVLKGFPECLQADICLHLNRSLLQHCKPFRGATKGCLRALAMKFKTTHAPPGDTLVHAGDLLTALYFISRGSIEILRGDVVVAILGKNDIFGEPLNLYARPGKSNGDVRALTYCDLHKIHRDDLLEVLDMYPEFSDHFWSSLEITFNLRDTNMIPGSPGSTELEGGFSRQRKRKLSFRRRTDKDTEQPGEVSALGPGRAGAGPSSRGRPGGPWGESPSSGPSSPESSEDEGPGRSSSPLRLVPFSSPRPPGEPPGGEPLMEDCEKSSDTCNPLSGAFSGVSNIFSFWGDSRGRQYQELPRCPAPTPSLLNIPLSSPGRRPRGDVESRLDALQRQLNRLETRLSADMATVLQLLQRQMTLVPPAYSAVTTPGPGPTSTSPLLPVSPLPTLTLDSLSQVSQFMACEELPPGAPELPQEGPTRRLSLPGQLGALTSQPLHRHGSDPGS

IC50 [2]: 1.3 ± 0.4 µM
Compound: CC(=O)Nc1cccc2[nH]c(N[C@H](C)c3cccc(C(F)(F)F)c3)nc12 [AP14145, N-(2-{[(1R)-1-[3-(trifluoromethyl)phenyl]ethyl]amino}-1H-1,3-benzodiazol-4-yl)acetamide]
IC50 [1]: 71.8 ± 0.5 µM
